Reference: patent US9271977B2, “Sanglifehrin derivatives and methods for their production” (NeuroVive Pharmaceutical AB, priority 2010, dated 2016)
Read-outs that look alike come from different tables or passages of the source.

What was measured:
[1] = tested on: HCV genotype 1b I389Iuc-ubi-neo/NS3-3′/5.1 replicon in Huh5.2 cells; assay: microbe, parasite or virus in culture; assay type: cell-based, Hepatitis C Virus; conditions: for Selectivity index (CC50/EC50): Huh5.2 replicon assay
Protocol: (§1) Antiviral efficacy against genotype 1 HCV may be tested as follows: One day before addition of the test article, Huh5.2 cells, containing the HCV genotype 1b I389Iuc-ubi-neo/NS3-3′/5.1 replicon (Vrolijk et al., 2003) and subcultured in cell growth medium [DMEM (Cat No. 41965039) supplemented with 10% FCS, 1% non-essential amino acids (11140035), 1% penicillin/streptomycin (15140148) and 2% Geneticin (10131027); Invitrogen] at a ratio of 1.3-1.4 and grown for 3-4 days in […] tissue culture flasks (Techno Plastic Products), were harvested and seeded in assay medium (DMEM, 10% FCS, 1% non-essential amino acids, 1% penicillin/streptomycin) at a density of 6500 cells/well (100 uL/well) in 96-well tissue culture microtitre plates (Falcon, Beckton Dickinson for evaluation of the anti-metabolic effect and CulturPlate, Perkin Elmer for evaluation of antiviral effect). The microtitre plates are incubated overnight (37° C., 5% CO2, 95-99% relative humidity), yielding a non-confluent cell monolayer.
(§2) Dilution series are prepared; each dilution series is performed in at least duplicate. Following assay setup, the microtitre plates are incubated for 72 hours (37° C., 5% CO2, 95-99% relative humidity).
For the evaluation of antiviral effects, assay medium is aspirated and the cell monolayers are washed with PBS. The wash buffer is aspirated, 25 uL of Glo Lysis Buffer (Cat. No. E2661, Promega) is added after which lysis is allowed to proceed for 5 min at room temperature. Subsequently, 50 uL of Luciferase Assay System (Cat. No. E1501, Promega) is added and the luciferase luminescence signal is quantified immediately (1000 ms integration time/well, Safire^2, Tecan). Relative luminescence units are converted to percentage of untreated controls.
(§3) The selectivity index (SI), indicative of the therapeutic window of the compound, is calculated as CC50/EC50.
(§4) Compounds were analysed in the replicon assay using Huh5.2 cells as described in the General Methods.

in vitro = conditions: human
Protocol: as §1, §2
(§5) For the evaluation of anti-metabolic effects, the assay medium is aspirated, replaced with 75 uL of a 5% MTS (Promega) solution in phenol red-free medium and incubated for 1.5 hours (37° C., 5% CO2, 95-99% relative humidity). Absorbance is measured at a wavelength of 498 nm (Safire^2, Tecan) and optical densities (OD values) are converted to percentage of untreated controls.
as §3, §4

[2] = Microsome stability assay, human liver microsomes; assay type: in vitro ADME; conditions: for stability in human liver microsomes compared to sanglifehrin A (in words): compared to sanglifehrin A (5)
Protocol: (§6) Mouse or human liver microsomes were diluted with buffer C (0.1 M Potassium Phosphate buffer, 1.0 mM EDTA, pH 7.4) to a concentration of 2.5 mg/mL. Microsomal stability samples were then prepared by adding 50 uL of 5 uM compound spiking solution (0.5 uL 10 mM DMSO stock solution in 9.5 uL ACN, added to 990 uL Buffer C) to 50 μL of microsomal solution (2.5 mg/mL), 110 uL Buffer C and mixed well. All samples were pre-incubated for approximately 15 minutes at 37° C. Following this, the reaction was initiated by adding 40 uL of the NADPH solution (12.5 mM) with gentle mixing. Aliquots (40 uL) were removed at 0, 15, 30, 45 and 60 minutes and quenched with ACN containing internal standard (120 uL). Protein was removed by centrifugation (4000 rpm, 15 min) and the sample plate analysed for compound concentration by LC-MS/MS. Half-lives were then calculated by standard methods, comparing the concentration of analyte wth the amount originally present.
(§7) Stability of the compounds in human and mouse liver microsomes was analysed as described in the General Methods. Sanglifehrin A, 5 was included as a comparison.

[3] = Microsome stability assay, mouse liver microsomes; assay type: in vitro ADME; conditions: for stability in mouse liver microsomes compared to sanglifehrin A (in words): compared to sanglifehrin A (5)
Protocol: as §6, §7

Huh5.2 cells = assay: Anti-metabolic effect (MTS) in the replicon cell line; conditions: Huh5.2 cells, 72 hours, MTS metabolic activity
Protocol: as §1, §2, §5, §3, §4

cyclophilin A (CyPA) = cyclophilin A (CyPA) (Homo sapiens, UniProt P62937); conditions: relative to CsA; cited from earlier work
cyclophilin A (CyPA), sequence (P62937 whole entry): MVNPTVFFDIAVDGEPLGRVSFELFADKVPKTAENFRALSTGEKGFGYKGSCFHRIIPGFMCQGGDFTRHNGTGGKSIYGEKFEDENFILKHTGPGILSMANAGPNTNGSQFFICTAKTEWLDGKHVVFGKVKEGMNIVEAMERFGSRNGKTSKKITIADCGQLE

HBV = conditions: cited from earlier work
HIV-1 = conditions: clinical, cited from earlier work
[4] = human, in vivo; cited from earlier work
[5] = Hepatitis C virus, Huh-5-2, Huh5.2 cells, HCV genotype 1b replicon, 72 hours, luciferase signal, read-out: EC50
[6] = pH 7.4, human liver microsomes, NADPH, 37° C.
[7] = pH 7.4, mouse liver microsomes, NADPH, 37° C.
[8] = Huh5.2 cells, HCV genotype 1b replicon, 72 hours, luciferase signal, read-out: EC50
[9] = human liver microsomes, NADPH, 37° C.
[10] = mouse liver microsomes, NADPH, 37° C.

Compound	EC50 [1, 5] [µM]	CC50 (in vitro) [µM]	stability in human liver microsomes compared to sanglifehrin A (in words) [2]	potency in the Huh5.2 replicon assay (in words) [1]	Selectivity index (CC50/EC50) [1]	half-life [2, 6] [min]	stability in mouse liver microsomes compared to sanglifehrin A (in words) [3]	half-life [3, 7] [min]	other results
CC[C@H]1C[C@H](C)[C@@]2(NC1=O)O[C@@H](C[C@H](O)[C@@H](C)CC/C=C/C=C(\C)[C@@H]1C/C=C/C=C/[C@H](O)[C@H](C)[C@@H](O)[C@@H](CCC(C)=O)C(=O)N[C@@H](C(C)C)C(=O)N[C@@H](Cc3ccccc3)C(=O)N3CCCC(N3)C(=O)O1)[C@H](C)[C@H](O)[C@@H]2C (stereo partly shown) [Compound 18, 61-Deshydroxy Sanglifehrin A]	3.4	11.7	increased stability	–	–	–	–	–	half-life at 1 µM [2, 6]: 7.64 min; half-life at 1 µM [3, 7]: 3.46 min
CC[C@H]1C[C@H](C)[C@@]2(NC1=O)O[C@@H](C[C@H](O)[C@@H](C)CC/C=C/C=C(\C)[C@@H]1C/C=C/C=C/[C@H](O)[C@H](C)[C@@H](O)[C@@H](CCC(C)=O)C(=O)N[C@@H](C(C)C)C(=O)N[C@@H](Cc3cccc(O)c3)C(=O)N3CCC[C@H](N3)C(=O)O1)[C@H](C)[C@H](O)[C@@H]2C [Sanglifehrin A, 5, Sanglifehrin A, reference compound]	–	–	–	less potent	–	–	–	–	EC50 [1, 8]: 0.318 µM; CC50 (Huh5.2 cells): 9.1 µM; Human liver microsome half life [2, 9]: 6.38 min; Mouse liver microsome half life [3, 10]: 6.15 min; higher affinity for CyPA compared to CsA (cyclophilin A (CyPA)): approximately 20 fold
C/C=C/C[C@@H](C)[C@@H](O)[C@H]1C(=O)N[C@@H](CC)C(=O)N(C)[C@H](C)C(=O)N(CC)[C@@H](C(C)C)C(=O)N[C@@H](C(C)C)C(=O)N(C)[C@@H](CC(C)C)C(=O)N[C@@H](C)C(=O)N[C@H](C)C(=O)N(C)[C@@H](CC(C)C)C(=O)N(C)[C@@H](CC(C)C)C(=O)N(C)[C@@H](C(C)C)C(=O)N1C [DEBIO-025]	–	–	–	–	–	–	–	–	IC50 (HBV; Ptak et al. 2008, read-out: IC50 against HBV): 4.1 µM; reduction of HIV-1 RNA levels (in words) (HIV-1; 27 of the treated patients (Steyn et al., 2006)): no reduction; reduction of HIV-1 RNA levels (HIV-1; in nine patients (Steyn et al., 2006)): ≥ 0.5 log 10 copies/mL; reduction of HIV-1 RNA levels (HIV-1; in two patients (Steyn et al., 2006)): > 1 log 10 copies/mL; discontinuation of treatment caused by hyperbilirubinemia [4]: 4 out of 16
CC[C@H]1C[C@H](C)[C@@]2(NC1=O)O[C@@H](C[C@H](O)[C@@H](C)CC/C=C/C=C(\C)[C@@H]1C/C=C/C=C/[C@H](O)[C@H](C)[C@@H](O)[C@@H](CCC(C)=O)C(=O)N[C@@H](C(C)C)C(=O)N[C@@H](Cc3ccc(C)c(O)c3)C(=O)N3CCCC(N3)C(=O)O1)[C@H](C)[C@H](O)[C@@H]2C (stereo partly shown) [Compound 17, 62-Methyl Sanglifehrin A]	0.083	11.6	increased stability	very potent	143	9.5	more stable	9.67	–
CC(=O)CC[C@H]1C(=O)N[C@@H](C(C)C)C(=O)N[C@@H](Cc2cccc(O)c2)C(=O)N2CCC[C@H](N2)C(=O)O[C@H](/C(C)=C/CO)C/C=C/C=C/[C@H](O)[C@H](C)[C@H]1O [Hydroxymacrocycle, 6, reference compound]	8.4	83.6	–	–	9.9	–	–	–	–
CC[C@H]1C[C@H](C)[C@@]2(NC1=O)O[C@@H](C[C@H](O)[C@@H](C)CC/C=C/C=C(\C)[C@@H]1C/C=C/C=C/[C@H](O)[C@H](C)[C@@H](O)[C@@H](CCC(C)=O)C(=O)N[C@@H](C(C)C)C(=O)N[C@@H](Cc3ccc(F)c(O)c3)C(=O)N3CCCC(N3)C(=O)O1)[C@H](C)[C@H](O)[C@@H]2C (stereo partly shown) [Compound 16, 62-Fluoro Sanglifehrin A]	0.89	29.7	increased stability	very potent	32	6.61	–	5.48	–
C/C=C/CC(C)C(O)C1C(=O)NC(CC)C(=O)N(C)CC(=O)N(C)C(CC(C)C)C(=O)NC(C(C)C)C(=O)N(C)C(CC(C)C)C(=O)NC(C)C(=O)NC(C)C(=O)N(C)C(CC(C)C)C(=O)N(C)C(CC(C)C)C(=O)N(C)C(C(C)C)C(=O)N1C (stereo not shown) [Cyclosporine A, 1, Cyclosporine A, reference compound]	–	–	–	less potent	–	–	–	–	EC50 ([1]; Hepatitis C virus, Huh-5-2, 72 h): 0.2 µM; IC50 against HBV (HBV; Xie et al., 2007): > 1.3 µg/mL
58-des(3-hydroxyphenyl)-58-(3-hydroxy(2-pyridyl)-sanglifehrin A [Compound 19]	–	–	increased stability	–	–	–	–	–	EC50 [1, 8]: 24.3 µM; CC50 (Huh5.2 cells): 48.1 µM; Human liver microsome half life [2, 9]: 10.37 min; Mouse liver microsome half life [3, 10]: 4.71 min
CC[C@H]1C[C@H](C)[C@@]2(NC1=O)O[C@@H](C[C@H](O)[C@@H](C)CC/C=C/C=C(\C)[C@@H]1C/C=C/C=C/[C@H](O)[C@H](C)[C@@H](O)[C@@H](CCC(C)=O)C(=O)N[C@@H](C(C)C)C(=O)N[C@@H](Cc3cc(O)c(F)c(F)c3)C(=O)N3CCCC(N3)C(=O)O1)[C@H](C)[C@H](O)[C@@H]2C (stereo partly shown) [Compound 15, 62,63-Fluoro Sanglifehrin A]	0.195	16.6	increased stability	very potent	88	10.8	more stable	9.22	–
CC[C@H]1C[C@H](C)[C@@]2(NC1=O)O[C@@H](C[C@H](O)[C@@H](C)CC/C=C/C=C(\C)[C@@H]1C/C=C/C=C/[C@H](O)[C@H](C)[C@@H](O)[C@@H](CCC(C)=O)C(=O)N[C@@H](C(C)C)C(=O)N[C@@H](Cc3cc(O)cc(F)c3)C(=O)N3CCCC(N3)C(=O)O1)[C@H](C)[C@H](O)[C@@H]2C (stereo partly shown) [Compound 14, 63-Fluoro Sanglifehrin a]	0.135	12.8	increased stability	very potent	121	9.32	more stable	9.78	–
